In publication PMC10700596 (Nature Communications, 2023):
Several values for one entry are separate records, joined by “and”; a condition that tells them apart may be missing. Equal entries are not always repeated.

Columns and labels:
Format in all cases: cell-based
EP4R Thr76Ala mutant = EP4R Thr76Ala mutant (Homo sapiens, UniProt P35408, T76A); details: IC50 vs WT EP4R
Excerpt: three independent experiments. Source data are provided as a Source Data file.
(1 picture or pasted object on this page, not shown here)

320 GPCRs [1] = target: 320 GPCRs (Homo sapiens, UniProt O00155)
320 GPCRs [2] = target: 320 GPCRs (Homo sapiens, UniProt O00270)
320 GPCRs [3] = target: 320 GPCRs (Homo sapiens, UniProt O00574)
320 GPCRs [4] = target: 320 GPCRs (Homo sapiens, UniProt O14804)
320 GPCRs [5] = target: 320 GPCRs (Homo sapiens, UniProt O14842)
320 GPCRs [6] = target: 320 GPCRs (Homo sapiens, UniProt O15218)
Sequence of 320 GPCRs (Homo sapiens, UniProt O15218) (O15218 whole entry): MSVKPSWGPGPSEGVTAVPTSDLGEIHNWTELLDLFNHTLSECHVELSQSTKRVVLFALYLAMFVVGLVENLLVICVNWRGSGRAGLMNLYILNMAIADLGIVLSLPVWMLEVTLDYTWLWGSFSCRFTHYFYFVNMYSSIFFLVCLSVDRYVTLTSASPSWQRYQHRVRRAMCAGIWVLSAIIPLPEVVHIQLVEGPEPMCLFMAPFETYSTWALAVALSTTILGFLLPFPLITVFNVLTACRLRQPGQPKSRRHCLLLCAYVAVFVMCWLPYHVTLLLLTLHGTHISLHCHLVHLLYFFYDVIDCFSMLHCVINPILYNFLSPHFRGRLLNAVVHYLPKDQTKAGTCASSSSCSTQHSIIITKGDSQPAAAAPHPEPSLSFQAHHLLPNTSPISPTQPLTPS

320 GPCRs [7] = target: 320 GPCRs (Homo sapiens, UniProt P08173)
320 GPCRs [8] = target: 320 GPCRs (Homo sapiens, UniProt P14416)
320 GPCRs [9] = target: 320 GPCRs (Homo sapiens, UniProt P22888)
320 GPCRs [10] = target: 320 GPCRs (Homo sapiens, UniProt P23945)
320 GPCRs [11] = target: 320 GPCRs (Homo sapiens, UniProt P25100)
320 GPCRs [12] = target: 320 GPCRs (Homo sapiens, UniProt P32238)
Sequence of 320 GPCRs (Homo sapiens, UniProt P32238) (P32238 whole entry): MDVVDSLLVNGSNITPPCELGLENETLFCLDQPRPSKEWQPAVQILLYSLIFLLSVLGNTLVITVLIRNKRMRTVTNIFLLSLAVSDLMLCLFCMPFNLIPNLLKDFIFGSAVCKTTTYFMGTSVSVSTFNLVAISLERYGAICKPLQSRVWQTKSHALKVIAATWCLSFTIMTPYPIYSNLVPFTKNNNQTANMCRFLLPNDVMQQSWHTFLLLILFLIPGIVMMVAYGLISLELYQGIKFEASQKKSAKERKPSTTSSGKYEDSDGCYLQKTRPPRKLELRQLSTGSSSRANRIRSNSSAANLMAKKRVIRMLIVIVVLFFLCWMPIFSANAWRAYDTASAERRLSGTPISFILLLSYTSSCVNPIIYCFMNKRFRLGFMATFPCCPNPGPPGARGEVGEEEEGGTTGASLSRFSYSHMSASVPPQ

320 GPCRs [13] = target: 320 GPCRs (Homo sapiens, UniProt P32239)
Sequence of 320 GPCRs (Homo sapiens, UniProt P32239) (P32239 whole entry): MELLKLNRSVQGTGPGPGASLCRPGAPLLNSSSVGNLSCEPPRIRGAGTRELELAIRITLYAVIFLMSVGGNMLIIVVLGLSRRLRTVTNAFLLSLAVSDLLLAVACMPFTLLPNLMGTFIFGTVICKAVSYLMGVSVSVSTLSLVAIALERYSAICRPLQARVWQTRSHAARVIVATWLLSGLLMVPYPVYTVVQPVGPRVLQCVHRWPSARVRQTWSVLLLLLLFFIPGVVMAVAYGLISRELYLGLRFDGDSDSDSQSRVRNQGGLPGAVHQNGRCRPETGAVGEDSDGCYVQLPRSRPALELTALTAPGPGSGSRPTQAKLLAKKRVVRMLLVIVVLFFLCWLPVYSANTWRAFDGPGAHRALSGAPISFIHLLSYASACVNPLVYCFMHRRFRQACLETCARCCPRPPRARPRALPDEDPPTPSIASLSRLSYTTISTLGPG

320 GPCRs [14] = target: 320 GPCRs (Homo sapiens, UniProt P35348)
320 GPCRs [15] = target: 320 GPCRs (Homo sapiens, UniProt P41594)
320 GPCRs [16] = target: 320 GPCRs (Homo sapiens, UniProt P41595)
Sequence of 320 GPCRs (Homo sapiens, UniProt P41595) (P41595 whole entry): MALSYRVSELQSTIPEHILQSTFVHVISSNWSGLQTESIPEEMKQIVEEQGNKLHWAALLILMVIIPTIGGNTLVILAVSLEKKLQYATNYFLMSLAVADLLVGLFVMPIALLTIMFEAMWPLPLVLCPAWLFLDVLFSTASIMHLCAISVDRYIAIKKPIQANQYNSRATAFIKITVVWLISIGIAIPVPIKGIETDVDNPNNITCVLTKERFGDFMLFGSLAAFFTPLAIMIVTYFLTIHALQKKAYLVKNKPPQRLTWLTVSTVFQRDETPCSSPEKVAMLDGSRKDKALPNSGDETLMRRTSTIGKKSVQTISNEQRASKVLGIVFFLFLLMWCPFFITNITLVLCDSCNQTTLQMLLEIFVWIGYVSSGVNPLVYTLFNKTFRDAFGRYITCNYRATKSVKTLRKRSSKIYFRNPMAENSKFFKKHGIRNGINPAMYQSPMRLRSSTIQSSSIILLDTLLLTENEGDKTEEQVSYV

320 GPCRs [17] = target: 320 GPCRs (Homo sapiens, UniProt P41968)
Sequence of 320 GPCRs (Homo sapiens, UniProt P41968) (P41968 whole entry): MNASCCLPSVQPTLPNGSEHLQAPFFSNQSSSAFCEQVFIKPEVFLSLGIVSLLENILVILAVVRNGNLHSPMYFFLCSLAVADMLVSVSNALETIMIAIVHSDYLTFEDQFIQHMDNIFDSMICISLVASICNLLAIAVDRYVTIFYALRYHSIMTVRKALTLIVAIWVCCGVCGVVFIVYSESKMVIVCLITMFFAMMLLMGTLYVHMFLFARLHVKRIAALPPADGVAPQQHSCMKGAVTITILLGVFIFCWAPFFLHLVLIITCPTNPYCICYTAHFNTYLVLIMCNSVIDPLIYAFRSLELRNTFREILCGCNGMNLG

320 GPCRs [18] = target: 320 GPCRs (Homo sapiens, UniProt P49685)
Sequence of 320 GPCRs (Homo sapiens, UniProt P49685) (P49685 whole entry): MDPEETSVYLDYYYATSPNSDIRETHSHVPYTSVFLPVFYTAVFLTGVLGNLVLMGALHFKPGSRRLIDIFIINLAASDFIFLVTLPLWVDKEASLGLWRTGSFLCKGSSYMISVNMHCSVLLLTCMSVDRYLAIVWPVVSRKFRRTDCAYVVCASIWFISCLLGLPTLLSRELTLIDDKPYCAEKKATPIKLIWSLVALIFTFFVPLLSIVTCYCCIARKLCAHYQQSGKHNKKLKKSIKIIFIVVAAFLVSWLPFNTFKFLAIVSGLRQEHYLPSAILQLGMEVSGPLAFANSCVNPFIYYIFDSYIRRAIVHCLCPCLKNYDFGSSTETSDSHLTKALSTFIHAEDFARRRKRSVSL

320 GPCRs [19] = target: 320 GPCRs (Homo sapiens, UniProt Q03431)
Sequence of 320 GPCRs (Homo sapiens, UniProt Q03431) (Q03431 27-593): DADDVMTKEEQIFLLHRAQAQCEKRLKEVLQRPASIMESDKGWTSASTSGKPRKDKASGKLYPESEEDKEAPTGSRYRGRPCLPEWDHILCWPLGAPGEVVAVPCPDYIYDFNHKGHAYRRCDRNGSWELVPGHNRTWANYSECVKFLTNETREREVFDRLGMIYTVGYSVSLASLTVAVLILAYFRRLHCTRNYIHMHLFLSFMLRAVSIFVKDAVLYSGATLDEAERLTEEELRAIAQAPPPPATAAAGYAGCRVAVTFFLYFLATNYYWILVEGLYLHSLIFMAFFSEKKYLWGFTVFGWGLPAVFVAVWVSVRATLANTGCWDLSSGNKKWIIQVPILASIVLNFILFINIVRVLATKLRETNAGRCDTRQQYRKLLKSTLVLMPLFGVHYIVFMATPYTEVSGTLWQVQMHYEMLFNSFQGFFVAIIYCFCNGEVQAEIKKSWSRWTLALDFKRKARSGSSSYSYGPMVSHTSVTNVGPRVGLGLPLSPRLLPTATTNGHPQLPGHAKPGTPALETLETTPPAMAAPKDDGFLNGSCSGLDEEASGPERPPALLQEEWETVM

320 GPCRs [20] = target: 320 GPCRs (Homo sapiens, UniProt Q13255)
320 GPCRs [21] = target: 320 GPCRs (Homo sapiens, UniProt Q14416)
Sequence of 320 GPCRs (Homo sapiens, UniProt Q14416) (Q14416 19-872): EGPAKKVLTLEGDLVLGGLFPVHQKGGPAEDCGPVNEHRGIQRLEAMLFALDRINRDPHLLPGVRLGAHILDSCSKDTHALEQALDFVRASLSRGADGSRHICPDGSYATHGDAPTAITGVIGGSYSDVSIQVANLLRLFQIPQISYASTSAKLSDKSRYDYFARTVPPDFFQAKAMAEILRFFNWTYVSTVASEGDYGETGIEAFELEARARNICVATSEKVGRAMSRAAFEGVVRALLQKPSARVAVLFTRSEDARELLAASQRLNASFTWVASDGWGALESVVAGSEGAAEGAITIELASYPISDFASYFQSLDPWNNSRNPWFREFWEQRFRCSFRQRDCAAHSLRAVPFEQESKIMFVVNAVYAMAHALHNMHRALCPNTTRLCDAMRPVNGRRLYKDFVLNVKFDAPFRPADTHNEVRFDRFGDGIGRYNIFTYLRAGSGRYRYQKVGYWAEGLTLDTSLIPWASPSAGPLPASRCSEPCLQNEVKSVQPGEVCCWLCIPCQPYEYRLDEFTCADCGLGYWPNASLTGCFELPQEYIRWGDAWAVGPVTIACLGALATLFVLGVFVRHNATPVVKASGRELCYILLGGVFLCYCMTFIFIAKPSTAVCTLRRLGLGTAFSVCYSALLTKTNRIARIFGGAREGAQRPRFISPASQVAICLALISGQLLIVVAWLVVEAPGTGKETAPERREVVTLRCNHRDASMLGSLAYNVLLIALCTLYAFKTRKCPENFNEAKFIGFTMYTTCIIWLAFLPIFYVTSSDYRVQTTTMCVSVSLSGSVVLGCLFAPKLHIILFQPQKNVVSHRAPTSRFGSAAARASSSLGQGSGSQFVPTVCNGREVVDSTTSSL

320 GPCRs [22] = target: 320 GPCRs (Homo sapiens, UniProt Q7Z601)
320 GPCRs [23] = target: 320 GPCRs (Homo sapiens, UniProt Q7Z7M1)
320 GPCRs [24] = target: 320 GPCRs (Homo sapiens, UniProt Q86SQ4)
320 GPCRs [25] = target: 320 GPCRs (Homo sapiens, UniProt Q8TDU9)
Sequence of 320 GPCRs (Homo sapiens, UniProt Q8TDU9) (Q8TDU9 whole entry): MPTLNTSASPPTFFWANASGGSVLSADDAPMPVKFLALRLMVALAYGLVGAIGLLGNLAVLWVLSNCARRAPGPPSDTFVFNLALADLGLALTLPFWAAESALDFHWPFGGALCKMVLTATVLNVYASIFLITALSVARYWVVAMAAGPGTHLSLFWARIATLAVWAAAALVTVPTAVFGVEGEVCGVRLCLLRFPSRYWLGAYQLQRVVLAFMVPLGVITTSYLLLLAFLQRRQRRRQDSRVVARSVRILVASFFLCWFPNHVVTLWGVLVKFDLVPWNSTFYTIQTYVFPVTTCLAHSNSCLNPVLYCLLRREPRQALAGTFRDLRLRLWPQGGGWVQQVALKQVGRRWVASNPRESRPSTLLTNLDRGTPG

320 GPCRs [26] = target: 320 GPCRs (Homo sapiens, UniProt Q8TDV5)
320 GPCRs [27] = target: 320 GPCRs (Homo sapiens, UniProt Q96LB0)
320 GPCRs [28] = target: 320 GPCRs (Homo sapiens, UniProt Q96P68)
320 GPCRs [29] = target: 320 GPCRs (Homo sapiens, UniProt Q96P69)
320 GPCRs [30] = target: 320 GPCRs (Homo sapiens, UniProt Q99677)
320 GPCRs [31] = target: 320 GPCRs (Homo sapiens, UniProt Q9BZJ8)
320 GPCRs [32] = target: 320 GPCRs (Homo sapiens, UniProt Q9HBX9)
320 GPCRs [33] = target: 320 GPCRs (Homo sapiens, UniProt Q9NPC1)
Sequence of 320 GPCRs (Homo sapiens, UniProt Q9NPC1) (Q9NPC1 whole entry): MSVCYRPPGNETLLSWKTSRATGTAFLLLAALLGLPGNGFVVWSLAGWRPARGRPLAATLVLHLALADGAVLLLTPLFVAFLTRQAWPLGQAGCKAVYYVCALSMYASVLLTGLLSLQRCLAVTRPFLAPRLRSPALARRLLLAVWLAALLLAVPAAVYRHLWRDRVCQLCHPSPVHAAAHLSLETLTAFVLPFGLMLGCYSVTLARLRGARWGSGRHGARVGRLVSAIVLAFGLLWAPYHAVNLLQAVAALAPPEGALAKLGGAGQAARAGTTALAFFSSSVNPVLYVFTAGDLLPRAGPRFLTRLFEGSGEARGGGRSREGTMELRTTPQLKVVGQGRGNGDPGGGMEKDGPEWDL

320 GPCRs [34] = target: 320 GPCRs (Homo sapiens, UniProt Q9NS67)
320 GPCRs [35] = target: 320 GPCRs (Homo sapiens, UniProt Q9UJ42)
Sequence of 320 GPCRs (Homo sapiens, UniProt Q9UJ42) (Q9UJ42 whole entry): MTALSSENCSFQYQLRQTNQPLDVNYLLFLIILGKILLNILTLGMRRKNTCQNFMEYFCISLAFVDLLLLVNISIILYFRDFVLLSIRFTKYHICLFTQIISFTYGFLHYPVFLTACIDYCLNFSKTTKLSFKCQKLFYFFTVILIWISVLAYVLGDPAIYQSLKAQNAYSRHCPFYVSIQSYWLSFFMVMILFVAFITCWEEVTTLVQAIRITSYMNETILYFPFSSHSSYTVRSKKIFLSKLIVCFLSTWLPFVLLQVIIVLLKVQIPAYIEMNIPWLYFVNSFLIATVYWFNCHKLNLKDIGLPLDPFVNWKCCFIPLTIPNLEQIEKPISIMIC

320 GPCRs [36] = system: 320 GPCRs

## O=C(O)C1CCC2(CC1)CC(Nc1ncnc3[nH]c4c(F)cccc4c13)C2 (stereo not shown) [Compound 74, OC(=O)C1CCC2(CC(C2)NC=3N=CN=C4NC=5C(F)=CC=CC5C34)CC1]
EP4R Thr76Ala mutant
  reduced potency at the Thr76Ala mutant: 30 fold
320 GPCRs [1]
  RLU (Fold over Basal): 1.1 Fold over Basal and 1 Fold over Basal and 0.7 Fold over Basal and 0.6 Fold over Basal
320 GPCRs [2]
  RLU (Fold over Basal): 1.8 Fold over Basal and 1.3 Fold over Basal
320 GPCRs [3]
  RLU (Fold over Basal): 0.7 Fold over Basal and 1.2 Fold over Basal and 0.9 Fold over Basal and 0.6 Fold over Basal
320 GPCRs [4]
  RLU (Fold over Basal): 1.3 Fold over Basal and 0.9 Fold over Basal and 1.4 Fold over Basal and 0.8 Fold over Basal
320 GPCRs [5]
  RLU (Fold over Basal): 1.6 Fold over Basal and 0.9 Fold over Basal
320 GPCRs [6]
  RLU (Fold over Basal): 0.5 Fold over Basal and 0.9 Fold over Basal and 0.6 Fold over Basal
320 GPCRs [7]
  RLU (Fold over Basal): 1.1 Fold over Basal and 1 Fold over Basal and 1.4 Fold over Basal and 1.2 Fold over Basal
320 GPCRs [8]
  RLU (Fold over Basal): 0.6 Fold over Basal and 0.5 Fold over Basal
320 GPCRs [9]
  RLU (Fold over Basal): 1.7 Fold over Basal and 1.8 Fold over Basal and 1.4 Fold over Basal
320 GPCRs [10]
  RLU (Fold over Basal): 1 Fold over Basal and 0.6 Fold over Basal
320 GPCRs [11]
  RLU (Fold over Basal): 1.5 Fold over Basal and 1.7 Fold over Basal and 1.6 Fold over Basal and 0.9 Fold over Basal
320 GPCRs [12]
  RLU (Fold over Basal): 1.2 Fold over Basal and 0.7 Fold over Basal and 0.6 Fold over Basal and 1 Fold over Basal
320 GPCRs [13]
  RLU (Fold over Basal): 0.9 Fold over Basal and 1.1 Fold over Basal and 0.8 Fold over Basal
320 GPCRs [14]
  RLU (Fold over Basal): 0.4 Fold over Basal and 0.7 Fold over Basal and 0.8 Fold over Basal
320 GPCRs [15]
  RLU (Fold over Basal): 0.8 Fold over Basal and 1.3 Fold over Basal and 0.9 Fold over Basal and 0.7 Fold over Basal
320 GPCRs [16]
  RLU (Fold over Basal): 0.8 Fold over Basal and 0.9 Fold over Basal and 0.7 Fold over Basal and 1 Fold over Basal
320 GPCRs [17]
  RLU (Fold over Basal): 0.5 Fold over Basal and 1 Fold over Basal and 0.7 Fold over Basal and 0.8 Fold over Basal
320 GPCRs [18]
  RLU (Fold over Basal): 0.4 Fold over Basal and 0.5 Fold over Basal and 0.6 Fold over Basal and 0.7 Fold over Basal
320 GPCRs [19]
  RLU (Fold over Basal): 1.2 Fold over Basal and 1.1 Fold over Basal and 1.4 Fold over Basal
320 GPCRs [20]
  RLU (Fold over Basal): 0.9 Fold over Basal and 1.1 Fold over Basal and 0.8 Fold over Basal
320 GPCRs [21]
  RLU (Fold over Basal): 1 Fold over Basal and 1.1 Fold over Basal and 0.9 Fold over Basal
320 GPCRs [22]
  RLU (Fold over Basal): 0.6 Fold over Basal and 1 Fold over Basal
320 GPCRs [23]
  RLU (Fold over Basal): 1.3 Fold over Basal and 0.7 Fold over Basal
320 GPCRs [24]
  RLU (Fold over Basal): 1 Fold over Basal and 1.1 Fold over Basal and 0.9 Fold over Basal and 1.5 Fold over Basal
320 GPCRs [25]
  RLU (Fold over Basal): 1.1 Fold over Basal and 0.6 Fold over Basal and 0.7 Fold over Basal
320 GPCRs [26]
  RLU (Fold over Basal): 0.5 Fold over Basal and 0.6 Fold over Basal and 0.8 Fold over Basal
320 GPCRs [27]
  RLU (Fold over Basal): 1 Fold over Basal and 1.4 Fold over Basal and 0.9 Fold over Basal
320 GPCRs [28]
  RLU (Fold over Basal): 0.3 Fold over Basal
320 GPCRs [29]
  RLU (Fold over Basal): 1 Fold over Basal and 0.5 Fold over Basal and 0.9 Fold over Basal
320 GPCRs [30]
  RLU (Fold over Basal): 0.9 Fold over Basal and 0.7 Fold over Basal and 0.8 Fold over Basal
320 GPCRs [31]
  RLU (Fold over Basal): 0.8 Fold over Basal and 1.4 Fold over Basal and 1 Fold over Basal and 1.1 Fold over Basal
320 GPCRs [32]
  RLU (Fold over Basal): 0.7 Fold over Basal and 0.9 Fold over Basal and 0.5 Fold over Basal
320 GPCRs [33]
  RLU (Fold over Basal): 0.9 Fold over Basal and 1.5 Fold over Basal and 0.8 Fold over Basal and 1.3 Fold over Basal
320 GPCRs [34]
  RLU (Fold over Basal): 0.4 Fold over Basal and 0.7 Fold over Basal and 0.8 Fold over Basal and 0.6 Fold over Basal
320 GPCRs [35]
  RLU (Fold over Basal): 4 Fold over Basal and 2 Fold over Basal and 3.4 Fold over Basal and 3.2 Fold over Basal
320 GPCRs [36]
  agonist activity in GPCR panel: no agonist activity
